Results on seven molecules are retold here after patent US5411984A, “Water soluble analogs and prodrugs of taxol” (Virginia Tech Intellectual Properties, Inc., priority 1992, dated 1995).

For data set [1] the following is noted: Deutsch et al.; cited from earlier work.
The conditions of data set [2]: Magri and Kingston; cited from earlier work.
For data set [3] the following is noted: cited from earlier work.
For data set [4] the following is noted: cited from earlier work. This is another data set of the same source.
For data set [5] the following is noted: cited from earlier work. The source holds these as a separate data set.
The next data set has as its system P-388. The following applies: cited from earlier work.
A short description of the next data set: Solubility in pure water. Type of data set: physicochemical.
Data set [6] can be described thus: Relative solubility by the 1-octanol and water partition method (UV absorption at 228 nm), taxol = 1. The method, then: In separate experiments, taxol derivative 4 and 2'-succinyl taxol (R=NaO2 CCH2 CH2 CO2) were dissolved in a mildly basic aqueous solution.
*Solubilities were determined by using the 1octanol and water partition
method.Sample concentrations in water were determined by UV absorptions a […]

The nature of data set [7]: Stability in pH 5 buffer / mildly acidic aqueous solution (HPLC or TLC, onset of cloudiness). Type of data set: physicochemical. The following applies: method (b): 0.5 mg in 0.1 ml EtOH and 0.9 ml pH 5 buffer, room temperature. The method, then:
**Stabilities were determined in pH 5 buffer solution by one of the two
methods indicated below.
(a) 9.5 mg of sample was dissolved in 0.2 ml of EtOH and 0.2 ml of pH 5
buffer solution and let stand at room temperature. The progress of
decomposition was checked by HPLC or TLC and observation of the onset of
(b) 0.5 mg of sample was dissolved in 0.1 ml of EtOH and 0.9 ml of pH 5
buffer solution, the other conditions were the same as in (a) above. All
samples were stable under these conditions for at least 24 hours. No
hydrolysis was detectable by HPLC or TLC during this time period.

Another data set deals with tubulin. The following applies: cited from earlier work.
For data set [8] the following is noted: Cremophor EL diluent, without prolonged infusion and premedication with antiallergic drugs; cited from earlier work.
Data set [9] deals with drug-refractory ovarian cancer. Particulars: in vivo; cited from earlier work.
Another data set concerns metastatic breast cancer. Particulars: in vivo; cited from earlier work.

Where only a bound is given, the exact number is not on record here.

On to `CC(=O)O[C@H]1C(=O)[C@@]2(C)[C@H]([C@H](OC(=O)c3ccccc3)[C@]3(O)C[C@H](OC(=O)[C@H](OC(=O)CCCC(=O)NCCCN(C)C)[C@@H](NC(=O)c4ccccc4)c4ccccc4)C(C)=C1C3(C)C)[C@]1(OC(C)=O)CO[C@@H]1C[C@@H]2O`, for which the “antitumor activity” value in [1] is “good solubility and bioactivity”.
Regarding `CC(=O)O[C@H]1C(=O)[C@@]2(C)[C@H]([C@H](OC(=O)c3ccccc3)[C@]3(O)C[C@H](OC(=O)[C@H](O[Si](C)(C)C(C)(C)C)[C@@H](NC(=O)c4ccccc4)c4ccccc4)C(C)=C1C3(C)C)[C@]1(OC(C)=O)CO[C@@H]1C[C@@H]2O` [2'-(t-butyldimethylsilyl) taxol], in data set [2], the “biological activity” value is “essentially inactive”.
For the molecule `CC(=O)O[C@H]1C(=O)[C@@]2(C)[C@H]([C@H](OC(=O)c3ccccc3)[C@]3(O)C[C@H](OC(=O)[C@H](OC(C)=O)[C@@H](NC(=O)c4ccccc4)c4ccccc4)C(C)=C1C3(C)C)[C@]1(OC(C)=O)CO[C@@H]1C[C@@H]2O` [2'-acetyltaxol], the “hydrolysis of acyl substituents under in vivo conditions” value in data set [3] is “readily hydrolyzed”.
For the molecule `CC(=O)O[C@H]1C(=O)[C@@]2(C)[C@H]([C@H](OC(=O)c3ccccc3)[C@]3(O)C[C@H](OC(=O)[C@H](OC(=O)CCN)[C@@H](NC(=O)c4ccccc4)c4ccccc4)C(C)=C1C3(C)C)[C@]1(OC(C)=O)CO[C@@H]1C[C@@H]2O` [Compound 1, 2'-(β-alanyl)-taxol], the “in vivo activity” value in data set [4] is reported as “active in vivo”. In addition, in data set [5], the “aqueous solubility” value was “increased water solubility”.
On to `CC(=O)O[C@H]1C(=O)[C@@]2(C)[C@H]([C@H](OC(=O)c3ccccc3)[C@]3(O)C[C@H](OC(=O)[C@H](OC(=O)CCC(=O)O)[C@@H](NC(=O)c4ccccc4)c4ccccc4)C(C)=C1C3(C)C)[C@]1(OC(C)=O)CO[C@@H]1C[C@@H]2O` [Compound 2, 2'-succinyltaxol], for which the “aqueous solubility” value in data set [5] was “increased water solubility”. Further, the “P-388 in vivo activity compared with taxol” value in the data set on P-388 is “diminished”.
In the case of `CC(=O)O[C@H]1C(=O)[C@@]2(C)[C@H]([C@H](OC(=O)c3ccccc3)[C@]3(O)C[C@H](OC(=O)[C@H](OC(=O)c4cc(C(=O)O)c(C(=O)O)cc4C(=O)O)[C@@H](NC(=O)c4ccccc4)c4ccccc4)C(C)=C1C3(C)C)[C@]1(OC(C)=O)CO[C@@H]1C[C@@H]2O` [Compound 9b, Taxol 2'-(trisodium 1,2,4,5-benzenetetracarboxylate)], the solubility – broadly, how much of the substance goes into solution per volume – in the data set “Solubility in pure water” is more than 227 mg/mL. Moreover, in data set [6] (compared with taxol), the “times more water soluble than taxol” value is “more than 1500 times”. In addition, the “Stabilities at pH 5” value in [7] was more than 24 h.
As for `CC(=O)O[C@H]1C(=O)[C@@]2(C)[C@H]([C@H](OC(=O)c3ccccc3)[C@]3(O)C[C@H](OC(=O)[C@H](O)[C@@H](NC(=O)c4ccccc4)c4ccccc4)C(C)=C1C3(C)C)[C@]1(OC(C)=O)CO[C@@H]1C[C@@H]2O` [Taxol], in the data set with tubulin, the “effect on depolymerization of tubulin” value is “prevents depolymerization of the tubulin” and the “effect on microtubule / tubulin polymer formation” value is on record as “promotes formation of microtubules”. Further, in [8], the allergic reactions result is “severe allergic reactions and even death”. The “Relative Solubility (p')” value in data set [6] worked out at 1. For the same molecule, the “clinical activity against drug-refractory ovarian cancer” value in data set [9] is “excellent clinical activity”. Further, the “aqueous solubility” value in data set [5] is listed as “low water solubility”. Further, the “clinical activity in metastatic breast cancer” value in the data set with metastatic breast cancer is on record as “active drug”.
